Assay results reported in publication PMC3961306, “Comparison of the Cancer Gene Targeting and Biochemical Selectivities of All Targeted Kinase Inhibitors Approved for Clinical Use” (PLoS ONE, 2014).

What was measured:
Test in all cases: Kinase profiling in a biochemical assay panel (mobility shift assays and ELISA), %-inhibition at 1 μM; selectivity entropy
[1] = biological target: T1, panel of more than 300 wild-type and mutant kinases (313 kinase panel) (Homo sapiens, UniProt Q9NRA0)
T1 sequence (Q9NRA0 1-654): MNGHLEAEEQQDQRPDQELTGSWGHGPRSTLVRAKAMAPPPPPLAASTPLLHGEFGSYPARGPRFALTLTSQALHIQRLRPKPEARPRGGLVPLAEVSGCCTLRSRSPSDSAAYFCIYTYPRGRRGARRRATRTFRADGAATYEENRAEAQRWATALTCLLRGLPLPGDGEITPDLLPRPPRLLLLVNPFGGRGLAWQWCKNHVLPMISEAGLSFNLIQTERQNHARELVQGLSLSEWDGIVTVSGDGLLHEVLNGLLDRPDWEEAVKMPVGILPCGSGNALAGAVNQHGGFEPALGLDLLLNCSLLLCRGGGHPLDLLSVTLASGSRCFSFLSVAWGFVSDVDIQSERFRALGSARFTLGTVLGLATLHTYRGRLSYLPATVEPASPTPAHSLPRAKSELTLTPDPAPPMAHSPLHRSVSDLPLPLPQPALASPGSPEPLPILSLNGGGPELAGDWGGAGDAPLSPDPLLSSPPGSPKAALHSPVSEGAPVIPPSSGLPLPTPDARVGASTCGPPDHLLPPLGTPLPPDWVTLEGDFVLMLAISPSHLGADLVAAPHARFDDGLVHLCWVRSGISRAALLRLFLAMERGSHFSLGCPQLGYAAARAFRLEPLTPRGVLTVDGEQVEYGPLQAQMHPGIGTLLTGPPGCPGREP

[2] = biological target: panel of more than 300 wild-type and mutant kinases (313 kinase panel) (Homo sapiens, UniProt P53350)
[3] = biological target: panel of more than 300 wild-type and mutant kinases (313 kinase panel) (Homo sapiens, UniProt Q13464)
[4] = biological target: T2, panel of more than 300 wild-type and mutant kinases (313 kinase panel) (Homo sapiens, UniProt Q9NRM7)
T2 sequence (Q9NRM7 1-1088): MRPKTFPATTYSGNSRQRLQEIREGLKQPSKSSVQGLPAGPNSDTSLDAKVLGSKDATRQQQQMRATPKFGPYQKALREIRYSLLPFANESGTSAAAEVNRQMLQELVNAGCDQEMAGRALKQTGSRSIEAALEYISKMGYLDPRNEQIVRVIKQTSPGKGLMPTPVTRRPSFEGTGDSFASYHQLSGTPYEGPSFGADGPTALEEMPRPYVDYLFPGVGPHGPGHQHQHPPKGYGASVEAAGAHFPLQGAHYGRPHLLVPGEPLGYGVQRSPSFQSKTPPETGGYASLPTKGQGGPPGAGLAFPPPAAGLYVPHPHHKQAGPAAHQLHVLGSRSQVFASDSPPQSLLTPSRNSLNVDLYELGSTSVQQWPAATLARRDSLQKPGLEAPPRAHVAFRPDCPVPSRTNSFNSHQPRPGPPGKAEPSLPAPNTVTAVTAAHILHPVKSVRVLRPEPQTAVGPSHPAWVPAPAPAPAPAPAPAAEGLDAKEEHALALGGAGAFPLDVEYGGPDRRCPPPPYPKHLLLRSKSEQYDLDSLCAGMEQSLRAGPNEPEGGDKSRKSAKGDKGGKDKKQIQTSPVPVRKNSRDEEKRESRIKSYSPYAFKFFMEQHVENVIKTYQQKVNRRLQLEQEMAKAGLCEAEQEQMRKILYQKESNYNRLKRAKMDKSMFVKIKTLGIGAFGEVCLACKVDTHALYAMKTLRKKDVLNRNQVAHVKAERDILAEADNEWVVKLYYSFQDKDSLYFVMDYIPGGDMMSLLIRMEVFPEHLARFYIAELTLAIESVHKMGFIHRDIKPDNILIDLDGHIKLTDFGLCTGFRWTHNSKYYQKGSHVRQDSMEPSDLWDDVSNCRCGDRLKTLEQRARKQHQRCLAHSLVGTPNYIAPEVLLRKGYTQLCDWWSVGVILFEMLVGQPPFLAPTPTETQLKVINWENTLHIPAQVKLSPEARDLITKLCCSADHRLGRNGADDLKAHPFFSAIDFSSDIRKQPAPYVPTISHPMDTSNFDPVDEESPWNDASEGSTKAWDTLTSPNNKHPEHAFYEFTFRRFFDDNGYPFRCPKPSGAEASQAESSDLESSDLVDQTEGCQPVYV

[5] = biological target: T3, panel of more than 300 wild-type and mutant kinases (313 kinase panel) (Homo sapiens, UniProt P45985)
T3 sequence (P45985 1-399): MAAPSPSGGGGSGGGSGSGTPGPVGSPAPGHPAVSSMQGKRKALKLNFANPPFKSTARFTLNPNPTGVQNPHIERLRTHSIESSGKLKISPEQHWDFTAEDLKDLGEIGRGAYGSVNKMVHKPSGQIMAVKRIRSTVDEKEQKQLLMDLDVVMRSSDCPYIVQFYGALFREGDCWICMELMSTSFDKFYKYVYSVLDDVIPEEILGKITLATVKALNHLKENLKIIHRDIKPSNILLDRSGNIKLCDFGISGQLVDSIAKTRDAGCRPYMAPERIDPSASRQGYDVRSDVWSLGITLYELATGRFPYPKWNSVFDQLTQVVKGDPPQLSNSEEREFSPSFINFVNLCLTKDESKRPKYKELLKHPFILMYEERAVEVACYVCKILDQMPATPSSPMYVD

[6] = kinase MAP2K4, compound at 1 μM

SMILES | %-inhibition of SPHK2 ([1]; kinase SPHK2, 1 μM) | %-inhibition of PLK1 ([2]; kinase PLK1, 1 μM) | %-inhibition of ROCK1 ([3]; kinase ROCK1, 1 μM) | %-inhibition of LATS2 ([4]; kinase LATS2, compound at 1 μM) | %-inhibition of MAP2K4 [5, 6] | %-inhibition of MAP2K4 ([5]; 1 µM) | %-inhibition of PLK1 ([2]; 1 µM) | %-inhibition of ROCK1 ([3]; 1 µM) | %-inhibition of SPHK2 ([1]; 1 µM) | %-inhibition of LATS2 ([4]; 1 µM)
CN(C)C/C=C/C(=O)Nc1cc2c(Nc3ccc(F)c(Cl)c3)ncnc2cc1O[C@H]1CCOC1 [afatinib] | -10% |  |  |  |  |  |  |  |  | 
COc1cc(Nc2c(C#N)cnc3cc(OCCCN4CCN(C)CC4)c(OC)cc23)c(Cl)cc1Cl [bosutinib] | 4.4% | 5% | 1.43% | 28% |  |  |  |  |  | 
COc1cc2nccc(Oc3ccc(NC(=O)C4(C(=O)Nc5ccc(F)cc5)CC4)cc3)c2cc1OC [cabozantinib] | 2% | -2% | 1.28% | -5.61% | -0.379% |  |  |  |  | 
C[C@@H](Oc1cc(-c2cnn(C3CCNCC3)c2)cnc1N)c1c(Cl)ccc(F)c1Cl [crizotinib] | 8% | -3% | 3.39% | -6% | -1.24% |  |  |  |  | 
CC(C)(C)c1nc(-c2cccc(NS(=O)(=O)c3c(F)cccc3F)c2F)c(-c2ccnc(N)n2)s1 [dabrafenib] | -14% | -9% |  | 0.57% | -3% |  |  |  |  | 
Cc1nc(Nc2ncc(C(=O)Nc3c(C)cccc3Cl)s2)cc(N2CCN(CCO)CC2)n1 [dasatinib] |  |  |  | -7% | -3.71% |  |  |  |  | 
C#Cc1cccc(Nc2ncnc3cc(OCCOC)c(OCCOC)cc23)c1 [erlotinib] |  |  |  |  |  | -6% | -10% | 1.9% | -2.22% | -8%
CO[C@H]1C[C@@H]2CC[C@@H](C)[C@@](O)(O2)C(=O)C(=O)N2CCCC[C@H]2C(=O)O[C@H]([C@H](C)C[C@@H]2CC[C@@H](OCCO)[C@H](OC)C2)CC(=O)[C@H](C)/C=C(\C)[C@@H](O)[C@@H](OC)C(=O)[C@H](C)C[C@H](C)/C=C/C=C/C=C/1C [everolimus] | 1.25% | 0.059% | -3.7% | -13% | 1.55% |  |  |  |  | 
O=S(=O)(c1cccc2cnccc12)N1CCCNCC1 [fasudil] | -21% | -8.49% | 83% | 22% | -5% |  |  |  |  | 
CS(=O)(=O)CCNCc1ccc(-c2ccc3ncnc(Nc4ccc(OCc5cccc(F)c5)c(Cl)c4)c3c2)o1 [lapatinib] | -4% |  | -2.62% | -8% | 0.409% |  | -2.71% |  |  | 
Cc1cn(-c2cc(NC(=O)c3ccc(C)c(Nc4nccc(-c5cccnc5)n4)c3)cc(C(F)(F)F)c2)cn1 [nilotinib] | 6% | -2.41% |  | -72% | -4.54% |  |  | -17% |  | 
Cc1ccc(Nc2nccc(N(C)c3ccc4c(C)n(C)nc4c3)n2)cc1S(N)(=O)=O [pazopanib] | 4% | 1.15% | -1.24% | -0.465% |  |  |  |  |  | 
Cc1ccc(C(=O)Nc2ccc(CN3CCN(C)CC3)c(C(F)(F)F)c2)cc1C#Cc1cnc2cccnn12 [ponatinib] | 11% | -6% | 39% | 16% |  |  |  |  |  | 
CNC(=O)c1cc(Oc2ccc(NC(=O)Nc3ccc(Cl)c(C(F)(F)F)c3)c(F)c2)ccn1 [regorafenib] | -3.2% | -0.767% | 11% | -9.47% | 0.434% |  |  |  |  | 
N#CC[C@H](C1CCCC1)n1cc(-c2ncnc3[nH]ccc23)cn1 [ruxolitinib] | 6% | 25% |  | 37% | 10% |  |  | 66% |  | 
CCN(CC)CCNC(=O)c1c(C)[nH]c(/C=C2\C(=O)Nc3ccc(F)cc32)c1C [sunitinib] |  |  | 9% |  |  |  |  |  |  | 
CO[C@H]1C[C@@H]2CC[C@@H](C)[C@@](O)(O2)C(=O)C(=O)N2CCCC[C@H]2C(=O)O[C@H]([C@H](C)C[C@@H]2CC[C@@H](OC(=O)C(C)(CO)CO)[C@H](OC)C2)CC(=O)[C@H](C)/C=C(\C)[C@@H](O)[C@@H](OC)C(=O)[C@H](C)C[C@H](C)/C=C/C=C/C=C/1C [temsirolimus] | 2.77% | -0.295% | -0.679% | -4.56% | 8.51% |  |  |  |  | 
CCCS(=O)(=O)Nc1ccc(F)c(C(=O)c2c[nH]c3ncc(-c4ccc(Cl)cc4)cc23)c1F [vemurafenib] | 8% | -4% | 1.28% | -2.28% |  |  |  |  |  | 
